Laboratory results reported in paper PMC8194028, “Engineering and characterization of human β-defensin-3 and its analogues and microcin J25 peptides against Mannheimia haemolytica and bovine neutrophils” (Veterinary Research, 2021).
Values after ≈ are worked out from the molar mass of the structure shown. Read-outs that look alike come from different tables or passages of the source. Positions of bridges follow the written chain, without caps; N, C: chain ends. Residues, ends and D or L forms follow the SMILES beside them. No end group written: not given here.

Assays:
M. haemolytica-A1 = format: cell-based, Mannheimia haemolytica; conditions: for No. of CFU: one of three experiments
Procedure: Wild-type HBD3, its analogues, and MccJ25 were tested against M. haemolytica-A1 using optical density method and colony count assay. Briefly, an aliquot (5 µL) from bacteria suspension stored at −80 °C was put in 5 mL BHI broth at 37 °C for 18 h. An aliquot (10 µL) from this overnight culture was added to fresh BHI broth and incubated at 37 °C for a further 5 h to obtain mid-log phase bacteria. The culture was then centrifuged for 10 min at 800 g at 4 °C. The supernatant was discarded and the bacterial pellet was resuspended in cold, sterile sodium phosphate buffer (SPB) and washed again at 800g for 10 min at 4 °C. The pellet was resuspended in 5 mL SPB. To calculate the number of CFU/mL in the 5 h culture, six successive tenfold dilutions were made. From the last dilution 100 µL was plated in duplicate on petri dishes containing BHI agar and incubated for 24 h. After 24 h the colonies were counted in the two petri dishes and then averaged. Total number of colonies was the average number of colonies multiplied by the dilution factor.
All assays were carried out in sterile 96-well polypropylene flat-bottomed plates using a broth microdilution method. Two-fold serial dilutions of peptide were made in SPB, and 50 µL of each concentration of peptide was added to the wells of the assay plate. […] Positive control wells contained 50 µL of the bacteria with 50 µL of 64 µg/mL ampicillin and negative control wells contained 50 µL of SPB and 50 µL bacterial suspension. Sterility control well contained 100 µL BHI broth to test and ensure that broth was not contaminated.
The plates were sealed with aluminum foil and were incubated at 37 °C for 2 h then 50 µL of the contents of the well were pipetted on BHI agar plates and incubated for 24 h. The bactericidal activity was expressed as the MBC which is the concentration at which 99.9% of the colonies are killed and the Lethal dose 50 (LD50) at which 50% or more bacteria are killed. All experiments were run in triplicates.
Peptides HBD3, its analogues and Mccj25 were assessed for Minimum bactericidal concentration (MBC). […] All the peptides have shown intermediate to potent killing activity towards M. haemolytica (Figures 2, 3). […] However, some published studies have taken final inoculum in the range of 10^4–10^5 cfu/mL [28].

[1] = cited from earlier work
Description: In this context, antimicrobial peptides (AMPs) have received significant attention as alternatives to antibiotics. […] Recent work by the […] laboratory has shown that treatment with naturally expressed Tracheal Antimicrobial Peptide, a defensin, neither killed M. haemolytica nor prevented the development of lung disease. Coupled with the fact that M. haemolytica, in normal condition, is prevented from e ...

bovine neutrophils [2] = assay: Chemotaxis assay, 48-well Boyden chamber; format: cell-based, cattle; conditions: peptide 50.0 μg/mL in lower well; 20 min at 37 °C; three independent experiments; ANOVA with Dunnett, P < 0.05
Procedure: (§1) Neutrophils were isolated from cattle using established methods and approved by the University of Saskatchewan’s Committee on Animal Care. For each individual animal, blood was pooled into 50 mL tubes and diluted with an equal volume of PBS then 12.5 mL of the diluted blood was layered over 10 mL of Ficoll Paque PLUS (Sigma-Aldrich, St. Louis, USA) while taking care to preserve the interface between the two liquids. Following centrifugation at 400 g for 30 min at 20 °C with the brake turned off, the lymphocyte layer was discarded along with Ficoll and plasma. The pellet was washed in 20 mL PBS with centrifugation at 500 g with low brake for 10 min. The supernatant was discarded and the pellet was suspended in equal volume of sterile water and gently mixed for 20 s followed by addition of equal volume of 1.8% NaCl to restore tonicity. The mixture was centrifuged at 500 g for 10 min and followed by another washing and centrifugation at 4 °C. The resulting neutrophil pellet was resuspended in PBS. Bovine neutrophils, collected in the above manner had more than 92% purity, and their viability was greater than 95% based on Trypan blue exclusion assay. Therefore, we use the term neutrophils in the manuscript.
We used fMLP ([…]) as the chemoattractant. […] The cells within the filter pores were then counted in five random fields under light microscope at 40×. […]

bovine neutrophils [3] = assay: Migration inhibition assay (neutrophil migration towards fMLP); format: cell-based, cattle; conditions: neutrophils with 50.0 μg/mL peptide in upper well; fMLP 114 nM in lower well; 20 min at 37 °C; three independent experiments
Procedure: as §1
Since peptides can be immunomodulatory, migration inhibition was carried out to determine if the peptides inhibit neutrophil migration. […]

[4] = peptide 0.8 μg/mL, well row A (duplicate 1), final inoculum 5 × 10^5 cfu/mL
[5] = peptide 0.8 μg/mL, well row B (duplicate 2), final inoculum 5 × 10^5 cfu/mL
[6] = peptide 1.6 μg/mL, well row A (duplicate 1), final inoculum 5 × 10^5 cfu/mL
[7] = peptide 1.6 μg/mL, well row B (duplicate 2), final inoculum 5 × 10^5 cfu/mL
[8] = peptide 3.1 μg/mL, well row A (duplicate 1), final inoculum 5 × 10^5 cfu/mL
[9] = peptide 3.1 μg/mL, well row B (duplicate 2), final inoculum 5 × 10^5 cfu/mL
[10] = peptide 12.5 μg/mL, well row A (duplicate 1), final inoculum 5 × 10^5 cfu/mL
[11] = peptide 12.5 μg/mL, well row B (duplicate 2), final inoculum 5 × 10^5 cfu/mL
[12] = peptide 25.0 μg/mL, well row A (duplicate 1), final inoculum 5 × 10^5 cfu/mL
[13] = peptide 25.0 μg/mL, well row B (duplicate 2), final inoculum 5 × 10^5 cfu/mL
[14] = peptide 50.0 μg/mL, well row A (duplicate 1), final inoculum 5 × 10^5 cfu/mL
[15] = peptide 50.0 μg/mL, well row B (duplicate 2), final inoculum 5 × 10^5 cfu/mL
[16] = peptide 100.0 μg/mL, well row A (duplicate 1), final inoculum 5 × 10^5 cfu/mL, 2 h 37 °C, 50 μL plated, 24 h
[17] = peptide 100.0 μg/mL, well row B (duplicate 2), final inoculum 5 × 10^5 cfu/mL

Compound | No. of CFU (M. haemolytica-A1; [4]) [CFU] | No. of CFU (M. haemolytica-A1; [5]) [CFU] | No. of CFU (M. haemolytica-A1; [6]) [CFU] | No. of CFU (M. haemolytica-A1; [7]) [CFU] | No. of CFU (M. haemolytica-A1; [8]) [CFU] | No. of CFU (M. haemolytica-A1; [9]) [CFU] | No. of CFU (M. haemolytica-A1; [10]) [CFU] | No. of CFU (M. haemolytica-A1; [11]) [CFU] | No. of CFU (M. haemolytica-A1; [12]) [CFU] | No. of CFU (M. haemolytica-A1; [13]) [CFU] | No. of CFU (M. haemolytica-A1; [14]) [CFU] | No. of CFU (M. haemolytica-A1; [15]) [CFU] | No. of CFU (M. haemolytica-A1; [16]) [CFU] | No. of CFU (M. haemolytica-A1; [17]) [CFU] | MBC (M. haemolytica-A1; 2 h) [µg/mL] | also measured
CC[C@H](C)[C@H](NC(=O)CNC(=O)[C@@H](NC(=O)[C@H](Cc1ccccc1)NC(=O)[C@H](Cc1ccc(O)cc1)NC(=O)[C@@H]1CCC(=O)NCC(=O)NCC(=O)N[C@@H](C)C(=O)NCC(=O)N[C@@H](Cc2c[nH]cn2)C(=O)N[C@@H](C(C)C)C(=O)N2CCC[C@H]2C(=O)N1)C(C)C)C(=O)NCC(=O)N[C@H](C(=O)N1CCC[C@H]1C(=O)N[C@H](C(=O)N[C@@H](CO)C(=O)N[C@@H](Cc1ccccc1)C(=O)N[C@@H](Cc1ccc(O)cc1)C(=O)NCC(=O)O)[C@@H](C)CC)[C@@H](C)O [MccJ25, Microcin J25] (GGAGHVPEYFVGIGTPISFYG-OH; lactam N-8 (inferred); C-terminus assumed) | >400 | >400 | >400 | >400 | >400 | >400 | 211 | 253 | 314 | 310 | 328 | 230 | 211 | 275 | – | MBC (M. haemolytica-A1; concentration at which 99.9% of the CFU in the final inoculum are killed, 2 h at 37 °C in SPB/BHI, then plated on BHI agar 24 h, final inoculum 1 × 10^5 to 1 × 10^6 cfu/mL, triplicates): 100 µg/mL (≈ 47.5 µM); LD50 (M. haemolytica-A1; lethal dose for ≥ 50% of bacteria, 2 h at 37 °C, then plated 24 h, final inoculum 1 × 10^5 to 1 × 10^6 cfu/mL, triplicates): 6.3 µg/mL; No. of CFU (M. haemolytica-A1; peptide 6.3 μg/mL, well row A (duplicate 1), final inoculum 5 × 10^5 cfu/mL): 289 CFU; No. of CFU (M. haemolytica-A1; peptide 6.3 μg/mL, well row B (duplicate 2), final inoculum 5 × 10^5 cfu/mL): 261 CFU
CC[C@H](C)[C@H](NC(=O)CNC(=O)[C@@H](NC(=O)[C@H](Cc1ccccc1)NC(=O)[C@H](Cc1ccc(O)cc1)NC(=O)[C@@H]1CCC(=O)NCC(=O)NCC(=O)N[C@@H](C)C(=O)NCC(=O)N[C@@H](Cc2cnc[nH]2)C(=O)N[C@@H](C(C)C)C(=O)N2CCC[C@H]2C(=O)N1)C(C)C)C(=O)NCC(=O)N[C@H](C(=O)N1CCC[C@H]1C(=O)N[C@H](C(=O)N[C@@H](CO)C(=O)N[C@@H](Cc1ccccc1)C(=O)N[C@@H](Cc1ccc(O)cc1)C(=O)NCC(=O)O)[C@@H](C)CC)[C@@H](C)O [MccJ25, Microcin J25] (GGAGHVPEYFVGIGTPISFYG-OH; lactam N-8) | – | – | – | – | – | – | – | – | – | – | – | – | – | – | – | Stability in the presence of many proteolytic enzymes [1]: stable
KEEQIGKVSTRGRKVVRRKK-OH [HBD3 20AA analogue] | >400 | >400 | >400 | >400 | 376 | >400 | 240 | 170 | 128 | 151 | 15 | 4 | 4 | 1 | 50.0 | LD50 (M. haemolytica-A1; 2 h): 3.1 µg/mL; Sensitivity of M. haemolytica to the peptide (class by MBC) (M. haemolytica-A1; MBC assay, classification of ref 28): intermediately sensitive (as intermediately sensitive if MBC levels were 10–100 μg/mL); Chemotaxis of bovine neutrophils towards peptide (migrated neutrophils vs PBS) (bovine neutrophils [2]): chemotactic; Effect of peptide on neutrophil migration towards fMLP (bovine neutrophils [3]): none of the peptides inhibited migration
RGRKVVRRKK-OH [HBD3 10AA analogue] | – | – | – | – | – | – | – | – | – | – | – | – | – | – | 6.3 | LD50 (M. haemolytica-A1; 18 h): ≥ 3.1 µg/mL; No. of CFU (M. haemolytica-A1; peptide 3.1 μg/mL, well row A (duplicate 1), final inoculum 10^4 cfu/mL): 7 CFU; No. of CFU (M. haemolytica-A1; peptide 3.1 μg/mL, well row B (duplicate 2), final inoculum 10^4 cfu/mL): 2 CFU; No. of CFU (M. haemolytica-A1; peptide 6.3 μg/mL, well row A (duplicate 1), final inoculum 10^4 cfu/mL): 4 CFU; No. of CFU (M. haemolytica-A1; peptide 6.3 μg/mL, well row B (duplicate 2), final inoculum 10^4 cfu/mL): 1 CFU; No. of CFU (M. haemolytica-A1; peptide 12.5 μg/mL, well row A (duplicate 1), final inoculum 10^4 cfu/mL): 4 CFU; No. of CFU (M. haemolytica-A1; peptide 12.5 μg/mL, well row B (duplicate 2), final inoculum 10^4 cfu/mL): 6 CFU; No. of CFU (M. haemolytica-A1; peptide 25.0 μg/mL, well row A (duplicate 1), final inoculum 10^4 cfu/mL): 4 CFU; No. of CFU (M. haemolytica-A1; peptide 25.0 μg/mL, well row B (duplicate 2), final inoculum 10^4 cfu/mL): 3 CFU; No. of CFU (M. haemolytica-A1; peptide 50.0 μg/mL, well row A (duplicate 1), final inoculum 10^4 cfu/mL): 4 CFU; No. of CFU (M. haemolytica-A1; peptide 50.0 μg/mL, well row B (duplicate 2), final inoculum 10^4 cfu/mL): 1 CFU; No. of CFU (M. haemolytica-A1; peptide 100.0 μg/mL, well row A (duplicate 1), final inoculum 10^4 cfu/mL): 0 CFU; No. of CFU (M. haemolytica-A1; peptide 100.0 μg/mL, well row B (duplicate 2), final inoculum 10^4 cfu/mL): 0 CFU
